Each block holds one compound with its values, some of them ahead of it.
Key:
p21 promoter [1] = assay: Chromatin immunoprecipitation (ChIP) in U2OS cells after DNA damage, p21 promoter; assay type: cell-based, human
Source text: To address this issue, a chromatin immunoprecipitation (ChIPs) technique was used to examine the temporal order of interaction of a variety of transcription proteins to individual p53-responsive promoters that control cell cycle arrest and apoptosis before and after DNA damage by two different damaging agents. […] For example, before damage the p21 promoter is already poised for transcription by containing bound RNA polymerase II, TATA binding protein (TBP), TFIIB, and TFIIH.
U2OS cells were grown to 50-60% confluency and treated either with UV-C or doxorubicin, (constant presence in media) for various times before crosslinking. After aspirating the media and washing with phosphate-buffered saline (PBS), cells were crosslinked with a 1% formaldehyde solution in 1×PBS for 15 min at room temperature. Crosslinking was stopped by addition of glycine to 125 mM final concentration. Monolayers were washed twice with cold PBS and harvested in radioimmunoprecipitation assay (RIPA) buffer [150 mM NaCl, 1% v/v Nonidet P-40, 0.5% w/v deoxycholate, 0.1% w/v SDS, 50 mM Tris pH 8, 5 mM EDTA, protease inhibitor cocktail, phosphatase inhibitors (20 mM NaF/0.2 mM sodium orthovanadate), deacetylase inhibitors (5 μM trichostatin A/5 mM sodium butyrate) and 0.5 mM PMSF] to generate a suspension of 10 million cells/ml. Suspensions were sonicated to generate DNA fragments below 500 bp and clarified by centrifugation for 10 min at 12000 g. Protein solutions were quantified for protein and DNA content and adjusted to 1 mg/ml of protein.
For immunoprecipitation, 1 mg of protein extract was pre-cleared for 2 hrs with 40 μl of a 50% slurry of 50:50 proteinA:proteinG sepharose before addition of indicated antibodies. Antibody (Ab) sources: DO1 (anti-total p53, Oncogene), S15P (anti-Serine 15-phospho-p53, Cell Signaling), AcH4 (Upstate), anti-TAF250 (R. Tjian), anti-TFIIB, -TBP, -RNApol II, -TFIIH (Santa Cruz), anti-serine 2-phospho-RNApol II and anti-serine 5-phospho-RNApol II (Covance). […]
DNA was precipitated and used as template in semi-quantitative PCR reactions. […]

[2] = test system: chromatin-assembled p21 promoter; assay: In vitro transcription of the chromatin-assembled p21-LUC template with HeLa cell nuclear extract; assay type: biochemical, human
Method: The p21-LUC chromatin template was subjected to in vitro transcription reactions using HeLa cell nuclear extracts as a source of basal initiation components in the presence or absence of p53 and/or p300, as described in the protocol depicted in FIG. 1B. Both factors were added after chromatin assembly was complete (“post assembly”) and incubated with the template prior to in vitro transcription. Addition of p53 alone produced very modest transcriptional activation. […] Neither p53 nor p300 appreciably influenced transcription of naked DNA templates. Identical results were obtained using extracts from another cell line, erythroid K562. Thus, transcriptional activation from the chromatin-assembled p21 promoter in vitro requires p53, acting at a distance of at least 1.38 kb, in combination with a histone acetyl transferase cofactor, p300.
Chromatin was reconstituted using Drosophila embryonic extracts as described (Bulger, M. and Kadonaga, J. 1994 Methods Mol Genet 5:242-262). After assembly, the chromatin template (500 ng of DNA in 50 μl) was incubated with p53 and/or p300 (typically between 0.2-10 pmol of p53 and 0.2-0.5 pmol of p300), for 30 min at 27° C. For transcription, 20 μl of HeLa cell nuclear extract (typically 8 mg/ml) was added and incubated on ice for 10 min, then reactions proceeded as described (Kadam, S. et al. 2000 Genes & Dev 14:2441-2451). The purified RNA was analyzed by primer extension analysis with primers specific to luciferase and -globin gene (used as an internal control) sequences.

p21 promoter 5′ site = assay: Electrophoretic Mobility Shift Assay (EMSA) of p53 binding to DNA containing the 5′ site of the p21 promoter; set-up: species or system human; conditions: compared with the acetylated form of wild-type p53
Source text: Both probes were ^32P end-labeled using T4 polynucleotide kinase and further purified by 12%-15% polyacrylamide native gels.

p21 promoter [3] = assay: DNase I footprinting of chromatin and DNA (p21-LUC plasmid); assay type: binding, human; conditions: DNase I footprinting on p21 promoter DNA or chromatin
Method: To analyze the mechanism by which p300 mediates p53-dependent activation, DNase I chromatin footprinting assays were performed to examine the occupancy of the 5′ and 3′ sites of the p21 promoter under conditions of transcriptional coactivation. Chromatin assembly and factor incubation steps were performed as described above, but the samples were split into three aliquots just before the in vitro transcription reaction. One aliquot was subjected to DNase I digestion, the second was transcribed, and the third was analyzed by Western blot to determine the acetylation status of p53.
DNA footprinting experiments were performed with chromatin-assembled p21 promoters after ATP depletion and purification by gel filtration using nonsaturating amounts of p53.
DNase I footprinting was done using three different templates: crude chromatin-assembled mixtures, CL4B-purified chromatin, and naked DNA. […] After incubation of the different templates with the proteins, samples were digested with 33 U/ml (crude chromatin), 1.5 U/ml (purified chromatin) or 0.1 U/ml (naked DNA) DNase I (Boehringer Mannheim) for 75 s at 25° C. Purified DNA fragments were analyzed by primer extension.

[4] = test system: nucleosomal histones of the chromatin-assembled p21 promoter; assay: Chromatin HAT assay (3H-acetyl CoA incorporation); assay type: biochemical
Method: The quality of p21 promoter chromatin assembled in this purified system was determined by micrococcal nuclease digestion, as for embryo extracts, with similar results. The templates were then incubated with p53 and/or p300 in the presence of ^3H-acetyl CoA and the extent of acetylation monitored by incorporation of radioactivity when analyzed by SDS-PAGE and fluorography. […] A control reaction with equivalent amounts of free histones and p300 was included. Acetylation of p53 and autoacetylation of p300 was also detected.
Chromatin assembly was performed with recombinant dACF complex and NAP-1 histone chaperone as described (Ito, T. et al. 1999 Genes & Dev 13:1529-1539 and references therein). Chromatin assembly was assessed by micrococcal nuclease digestion and transcriptional repression. After assembly, proteins were added to the chromatin mixtures in the presence of 5 μM ^3H-acetyl CoA (ICN). After incubation for 1 hr at 30° C. with p53 and/or p300, reactions were stopped by boiling in SDS-PAGE loading buffer and analyzed on a 15% SDS-PAGE gel. The gel was fixed and treated with fluorography enhancing solutions (NEN Life Science). The gel was then dried and exposed to autoradiography.

[5] = test system: chromatin-assembled p21 promoter; assay: In vitro chromatin immunoprecipitation with anti-acetyl-H4 antibodies; assay type: biochemical, human; conditions: p53 and p300
Method: To determine whether p53 influenced the localization of nucleosome acetylation on the p21 promoter by direct recruitment of p300, in vitro chromatin immunoprecipitation assays were performed. p21 promoters were assembled into chromatin using purified components and incubated with p53 and/or p300. Chromatin was digested with micrococcal nuclease and acetylated oligonucleosomes were immunoprecipitated using anti-acetyl-H4 antibodies. Specific p21 plasmid sequences in the immunoprecipitates were detected by PCR amplification or Southern blot. Identical results were obtained from both assays. […] The extent of increased acetylation in different regions of the p21-LUC plasmid varied from 3.4-fold near the 3′ p53 binding site to 1.4-fold in a distal region located 2 kb downstream of the proximal promoter. […] The following decreasing levels of acetylation were found: 3′ site>TATA box=5′ site>>+2 kb.
Chromatin immunoprecipitation analysis was performed using the anti-acetylated histone H4 antibody (Upstate Biotechnology) according to the manufacturer's recommendations and as previously described (Kundu, T. K. et al. 2000 Mol Cell 6:551-561) with some minor modifications, and as described in Example 2 (see below).

Compound: COc1cccc2c1C(=O)c1c(O)c3c(c(O)c1C2=O)C[C@@](O)(C(=O)CO)C[C@@H]3O[C@H]1C[C@H](N)[C@H](O)[C@H](C)O1 [doxorubicin]
binding of phosphorylated p53 to the p21 promoter (p21 promoter [1]): significantly increased
recruitment of TAFII250 to the p21 promoter (p21 promoter [1]): no recruitment
recruitment of TFIIB to the p21 promoter (p21 promoter [1]): active recruitment

Compound: p53KR: mutant p53 in which lysines 370, 372, 373, 381, and 382 within the C-terminal domain were replaced by arginine
ability to activate transcription compared with wild-type p53 ([2]; with p300): coactivated by p300 to a similar extent as wild-type p53

binding activity in EMSA (p21 promoter 5′ site): strongly active
binding to the 3′ site (p21 promoter [3]): no binding
binding to the 5′ site (p21 promoter [3]): weaker binding
Compound: p53ΔC30: C-terminal deleted form of p53, lacking the last 30 amino acid residues

Compound: p300: full-length human histidine-tagged p300, histone acetyl transferase cofactor, expressed in Sf9 cells
acetylation of nucleosomal histones ([4]; both p53 and p300 present): strong acetylation
acetylation of nucleosomal histones ([4]; p300 alone): very weak acetylation
transcriptional activation of the chromatin template ([2]; coincubation with p53): strong synergistic de-repression
transcriptional activation of the chromatin template ([2]; p300 alone): unable to achieve such activation
extent of increased acetylation ([5]; distal region 2 kb downstream of the proximal promoter): 1.4 fold
extent of increased acetylation ([5]; near the 3′ p53 binding site): 3.4 fold

— US20030228627A1, “Assay for p53 function in cells” (priority 2002, published 2003)
